Laboratory results from ChEMBL document CHEMBL1155647, “New eudesmane sesquiterpenes from Plectranthus cylindraceus” (J Nat Prod, 2000).
Active and inactive are the calls of the source.

Experiments:
[1] = test system: Mycolicibacterium smegmatis; assay: Antimicrobial activity against Mycobacterium smegmatis ATCC 35797 at 100 ug/mL by agar dilution assay; format: functional, organism-based
Pseudomonas aeruginosa = assay: Antimicrobial activity against Pseudomonas aeruginosa ATCC 15442 at 100 ug/mL by agar dilution assay; format: functional, organism-based
Bacillus subtilis = assay: Antimicrobial activity against Bacillus subtilis ATCC 6633 at 100 ug/mL by agar dilution assay; format: functional, organism-based
Staphylococcus aureus = assay: Antimicrobial activity against Staphylococcus aureus ATCC 29213 at 100 ug/mL by agar dilution assay; format: functional, organism-based
Candida albicans = assay: Antimicrobial activity against Candida albicans ATCC 10231 at 100 ug/mL by agar dilution assay; format: functional, organism-based
Escherichia coli = assay: Antimicrobial activity against Escherichia coli ATCC 25922 at 100 ug/mL by agar dilution assay; format: functional, organism-based
SF-268 = assay: Anticancer activity against human SF268 cells; format: functional, cell-based
NCI-H460 = assay: Anticancer activity against human NCI-H460 cells; format: functional, cell-based
MCF7 = assay: Anticancer activity against human MCF7 cells; format: functional, cell-based

Measured: Activity

COc1cc(O)c2c(=O)c(OC)c(-c3ccc(O)c(OC)c3)oc2c1
inactive: [1] | Pseudomonas aeruginosa | Bacillus subtilis | Staphylococcus aureus | Candida albicans | Escherichia coli

COc1cc2oc(-c3ccc(O)c(O)c3)c(OC)c(=O)c2c(O)c1OC
inactive: [1] | Pseudomonas aeruginosa | Bacillus subtilis | Staphylococcus aureus | Candida albicans | Escherichia coli

CC(=O)OC[C@@]12CC[C@@H](C(C)C)[C@@H](O)[C@@H]1C(C)=CC(=O)C2
inactive: [1] | Pseudomonas aeruginosa | Bacillus subtilis | Staphylococcus aureus | Candida albicans | Escherichia coli

COc1ccc(-c2oc3cc(OC)c(OC)c(O)c3c(=O)c2OC)cc1O
inactive: [1] | Pseudomonas aeruginosa | Bacillus subtilis | Staphylococcus aureus | Candida albicans | Escherichia coli

CC(=O)O[C@@H]1[C@H](C(C)C)CC[C@@]2(CO)CC(=O)C=C(C)[C@@H]12
inactive: SF-268 | NCI-H460 | [1] | Pseudomonas aeruginosa | Bacillus subtilis | MCF7 | Staphylococcus aureus | Candida albicans | Escherichia coli

CC(=O)OC[C@@]12CC[C@@H](C(C)C)[C@@H](OC(C)=O)[C@@H]1C(C)=CC(=O)C2
inactive: SF-268 | NCI-H460 | [1] | Pseudomonas aeruginosa | Bacillus subtilis | MCF7 | Staphylococcus aureus | Candida albicans | Escherichia coli
